# Assay results as given in patent US6548041B1, “Dopamine transporter imaging agents” (Organix, Inc., priority 1999, dated 2003).
# What was measured:
# DAT sites in striatum [1] = target: T1, DAT sites in striatum (Macaca mulatta, UniProt Q7JHP9); assay: SPECT imaging of monkey brain with 99mTc labeled tracers; format: in vivo, Rhesus monkeys; details: for accumulation of radioactivity in striatum vs other areas of the brain (SPECT images): images acquired between 30 and 50 minutes after injection
# T1 construct: from tissue; host or cells: brain (striatum) of living rhesus monkeys, imaged in vivo
# Experimental: (§1) All SPECT images were acquired with a MultiSPECT 2 gamma camera (Siemens, Hoffman Estates, Ill.) equipped with fan-beam collimators and peaked to the 140 KeV photopeak of ^99mTc (15% window). This camera has intrinsic resolution of 4.6 mm (FWHM), and a sensitivity of ˜240 cps/mCi. Images were acquired over 360° (60 projections/head, 128×128 matrix) in the continuous mode. Image reconstruction was performed using a conventional filtered back-projection algorithm to an in-plane resolution of 10 mm FWHM and attenuation correction via the Chang method.
# (§2) Rhesus monkeys weighing approximately 7 kg were anesthetized with ketamine/xylazine (15.0 and 1.5 mg/kg) and positioned prone on the imaging bed of the SPECT camera. Before the start of imaging, a venous catheter was inserted in a peripheral vein for radiopharmaceutical administration. The heads of the animals were immobilized with a custom fabricated head holder. Approximately 20-25 mCi of ^99mTc labeled O-1505T, O-1508T, O-1561T or O-1560T was injected intravenously over 60 seconds. Dynamic SPECT imaging was initiated at the end of the infusion and consisted of 2 min. acquisitions during the first hour and 5 min. acquisitions thereafter.
# (§3) SPECT slices with greatest striatal activity or in which the occipital cortex was well visualized were summed and regions of interest (ROI's) were constructed. In the striatal planes, ROI's were placed on the right and left striatum (caudate+putamen). Radioactivity in the right and left striatum were averaged. ROI radioactivities (cpm/cc) were decay corrected to the time of injection. The difference between striatal and occipital cortex activity (specific binding) was calculated for each image and was plotted as a function of time. Corrections for scattered fraction and partial volume effects were not performed.
# SERT = SERT (Homo sapiens, UniProt P31645); assay: Binding affinity for SERT (selectivity test)
# [2] = target: dopamine transporter (DAT); assay: Binding affinity for the dopamine transporter; details: for DAT/SERT: selectivity ratio from the IC50 values for DAT and SERT
# DAT sites in striatum [3] = assay: SPECT imaging of monkey brain with 99mTc labeled tracers; format: in vivo, Rhesus monkeys; details: SPECT images
# Experimental: as §1, §2, §3
# [4] = Biodistribution and radiation dosimetry (MIRdose); format: in vivo, Sprague-Dawley rats; details: rat, 5 min to 24 hrs after injection
# Experimental: Groups of male Sprague-Dawley rats were in injected with ˜10 mCi of ^99mTc labeled O-1505T and O-1561T. At time intervals between 5 min. and 24 hrs after injection, groups of 6 animals injected with each radiopharmaceutical were sacrificed and biodistribution was measured. Samples of blood, heart, lung, liver, spleen, kidney, adrenal, stomach, GI tract, testes, bone, bone marrow and skeletal muscle were weighed and radioactivity was measured with a well type gamma counter (LKB model #1282, Wallac Oy, Finland). To correct for radioactive decay and permit calculation of the concentration of radioactivity in each organ as a fraction of the administered dose, aliquots of the injected doses were counted simultaneously. The results were expressed as percent injected dose per gram (%I.D./g) and radiation dosimetry was estimated by the MIRdose method.
# Sequence of SERT (P31645 whole entry, species assumed): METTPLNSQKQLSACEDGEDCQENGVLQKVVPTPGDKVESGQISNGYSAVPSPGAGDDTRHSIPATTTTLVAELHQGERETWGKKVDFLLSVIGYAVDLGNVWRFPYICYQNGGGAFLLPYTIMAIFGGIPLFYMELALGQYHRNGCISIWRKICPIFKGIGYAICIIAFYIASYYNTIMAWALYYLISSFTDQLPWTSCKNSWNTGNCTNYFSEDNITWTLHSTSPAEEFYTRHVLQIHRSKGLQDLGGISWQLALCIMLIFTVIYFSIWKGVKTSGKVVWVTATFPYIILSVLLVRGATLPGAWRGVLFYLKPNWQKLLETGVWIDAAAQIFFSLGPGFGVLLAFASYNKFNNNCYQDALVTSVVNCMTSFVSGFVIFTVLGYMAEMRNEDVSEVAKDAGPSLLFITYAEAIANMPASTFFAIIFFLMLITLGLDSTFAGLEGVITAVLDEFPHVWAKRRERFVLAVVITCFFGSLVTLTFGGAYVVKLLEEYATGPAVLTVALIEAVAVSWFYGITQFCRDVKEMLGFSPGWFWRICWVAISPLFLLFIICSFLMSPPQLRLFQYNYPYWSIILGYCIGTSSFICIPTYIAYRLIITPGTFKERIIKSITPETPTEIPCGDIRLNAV
# T1 sequence (Q7JHP9 1-620): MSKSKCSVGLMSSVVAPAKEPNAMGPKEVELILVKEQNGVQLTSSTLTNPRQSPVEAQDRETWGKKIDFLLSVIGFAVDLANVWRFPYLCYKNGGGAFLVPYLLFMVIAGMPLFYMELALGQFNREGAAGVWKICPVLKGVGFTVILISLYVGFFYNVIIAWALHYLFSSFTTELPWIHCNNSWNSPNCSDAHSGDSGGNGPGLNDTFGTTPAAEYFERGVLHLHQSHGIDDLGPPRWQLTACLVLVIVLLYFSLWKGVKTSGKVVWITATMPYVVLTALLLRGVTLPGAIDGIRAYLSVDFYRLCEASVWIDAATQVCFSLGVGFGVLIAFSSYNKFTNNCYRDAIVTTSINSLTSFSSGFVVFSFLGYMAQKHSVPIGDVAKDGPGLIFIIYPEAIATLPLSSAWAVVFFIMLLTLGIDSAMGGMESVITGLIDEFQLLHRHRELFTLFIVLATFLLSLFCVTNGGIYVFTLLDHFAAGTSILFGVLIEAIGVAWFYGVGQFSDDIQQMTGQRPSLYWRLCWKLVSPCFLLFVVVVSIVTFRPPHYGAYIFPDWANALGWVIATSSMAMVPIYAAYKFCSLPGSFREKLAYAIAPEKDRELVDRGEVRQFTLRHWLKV
SMILES,IC50 (SERT) [µM],IC50 [2] [µM],DAT/SERT [2],also measured
"CCC(=O)C1C(c2ccc(Cl)c(Cl)c2)CC2CCC1N2CCCN1CC[S][99Tc]2(=[O])[S]CC[N]2C(=O)C1 (stereo not drawn) [Compound O-1560T, N-[(2-((3′-N′-Propyl-(1″R)-2″β-1-propanoyl-3″β-(3,4-dichlorophenyl)-tropane)(2-mercaptoethyl)amino)acetyl)-2-aminoethanethiolato]-technetium (V) Oxide]",,,,accumulation of radioactivity in striatum vs other areas of the brain (SPECT images) (DAT sites in striatum [1]): results more like O-1505T and O-1561T
"CCC(=O)C1C(c2ccc(Cl)c(Cl)c2)CC2CCC1N2CCCN1CC[S][Re]2(=[O])[S]CC[N]2C(=O)C1 (mixture of isomers) [Compound O-1561, N-[(2-((3′-N′-Propyl-(1″R)-3″α-(3,4-dichlorophenyl)tropane-2″β-1′″-propanoyl)(2-mercaptoethyl)amino)acetyl)-2-aminoethane-thiolato]rhenium (V) Oxide]",0.337,0.0053,63,
"COC(=O)C1C(c2ccc(F)cc2)CC2CCC1N2CCCN1CC[S][Re]2(=[O])[S]CC[N]2C(=O)C1 (single isomer, unassigned) [Compound O-928]",0.03,0.003,10,
"COC(=O)C1C(c2ccc(F)cc2)CC2CCC1N2CCCN1CC[S][Re]2(=[O])[S]CC[N]2C(=O)C1 (single isomer, unassigned) [Compound O-927]",0.2,0.005,40,
"COC(=O)C1=C(c2ccc3ccccc3c2)CC2CCC1N2CCC[N+]12CC[S][Re-]13(=[O])[S]CC[N]3C(=O)C2 (mixture of isomers) [Compound O-1185, N-[(2-((3′-N′-Propyl-(1″R)-2″-methoxycarbonyl-3″-(2-naphthyl)-trop-2-ene)(2-mercaptoethyl)amino)acetyl)-2-aminoethane-thiolato]-rhenium (V) Oxide]",0.96,0.063,15,
"CON(C)C(=O)C1C(c2ccc(F)cc2)CC2CCC1N2CCC[N+]12CC[S][Re-]13(=[O])[S]CC[N]3C(=O)C2 (stereo not drawn) [Compound O-1451, N-[(2-((3′-N′-Propyl-(1″R)-3″α-(4-fluorophenyl)tropane-2″β-methoxymethylcarbamoyl)(2-mercaptoethyl)amino)acetyl)-2-aminoethanethiolato]rhenium (V) Oxide]",3.26,0.04,80,
"CCC(=O)C1C(c2ccc(Cl)c(Cl)c2)CC2CCC1N2CCCN1CC[S][99Tc]2(=[O])[S]CC[N]2C(=O)C1 (stereo not drawn) [Compound O-1561T, N-[(2-((3′-N′-Propyl-(1″R)-2″β-1-propanoyl-3″α-(3,4-dichlorophenyl)-tropane)(2-mercaptoethyl)amino)acetyl)-2-aminoethanethiolato]-technetium (V) Oxide]",,,,"accumulation in thalamus, hypothalamus or midbrain (regions rich in 5-HT transporters) (DAT sites in striatum [3]): lack of accumulation; time after injection to excellent contrast between striatum and the rest of the brain (DAT sites in striatum [1]; i.v., normal monkeys): ≤ 30 min; accumulation of radioactivity in striatum vs other areas of the brain (SPECT images) (DAT sites in striatum [1]): high concentrations of radiopharmaceutical in the striatum with minimal accumulation in other areas of the brain; striatal to occipital cortex ratio (DAT sites in striatum [1]; region of interest analysis, SPECT images 30-50 minutes after i.v. injection of 20-25 mCi): ~2.5; clearance from tissues (biodistribution) [4]: cleared rapidly from all tissues of the rat"
"COC(=O)C1C(c2ccc(Cl)c(Cl)c2)CC2CCC1N2CCC[N+]12CC[S][Re-]13(=[O])[S]CC[N]3C(=O)C2 (stereo not drawn) [Compound O-1196, N-[(2-((3′-N′-Propyl-(1″R)-3″α-(3,4-dichlorophenyl)-2″β-methoxy-carbonyltropane)(2-mercaptoethyl)amino)acetyl)-2-aminoethanethiolato]rhenium (V) Oxide]",0.64,0.01,64,
"CCC(=O)C1C(c2ccc(F)cc2)CC2CCC1N2CCCN1CC[S][99Tc]2(=[O])[S]CC[N]2C(=O)C1 (stereo not drawn) [Compound O-1508T, N-[(2-((3′-N′-Propyl-(1″R)-3″β-(4-fluorophenyl)tropane-2″β-1-propanoyl)-(2-mercaptoethyl)amino)acetyl)-2-aminoethanethiolato]technetium (V) Oxide]",,,,accumulation of radioactivity in striatum vs other areas of the brain (SPECT images) (DAT sites in striatum [1]): failing to demonstrate significant accumulation of radioactivity in striatum or elsewhere in the brain
COC(=O)C1C(c2ccc(Cl)c(Cl)c2)CC2CCC1N2CCC[N+]12CC[S][Re-]13(=[O])[S]CC[N]3C(=O)C2 (mixture of isomers) [Compound O-863],,0.04,,
"COC(=O)C1C(c2ccc3ccccc3c2)CC2CCC1N2CCC[N+]12CC[S][Re-]13(=[O])[S]CC[N]3C(=O)C2 (mixture of isomers) [Compound O-1339, N-[(2-((3′-N′-Propyl-(1″R)-2″β-methoxycarbonyl-3″β-(2-naphthyl)-tropane)(2-mercaptoethyl)amino)acetyl)-2-aminoethanethiolato]-rhenium (V) Oxide]",0.059,0.0036,16,
"COC(=O)C1=C(c2ccc(Cl)c(Cl)c2)CC2CCC1N2CCC[N+]12CC[S][Re-]13(=[O])[S]CC[N]3C(=O)C2 (centres unmarked) [Compound O-1136, N-[(2-((3′-N′-Propyl-(1″R)-3″-(3,4-dichlorophenyl)trop-2-ene-2″-methoxycarbonyl)(2-mercaptoethyl)amino)acetyl)-2-aminoethane-thiolato]rhenium (V) Oxide]",1.69,0.06,28,
COC(=O)C1C(c2ccc(F)cc2)CC2CCC1N2CCC[N+]12CC[S][Re-]13(=[O])[S]CC[N]3C(=O)C2 (mixture of isomers) [Compound O-861],0.08,0.0029,28,
COC(=O)C1C(c2ccc(F)cc2)CC2CCC1N2CCC[N+]12CC[S][Re-]13(=[O])[S]CC[N]3C(=O)C2 (centres unmarked) [Compound O-1186],1.3,0.0038,340,
"CCC(=O)C1C(c2ccc(F)cc2)CC2CCC1N2CCCN1CC[S][Re]2(=[O])[S]CC[N]2C(=O)C1 (mixture of isomers) [Compound O-1508, N-[(2-((3′-N′-Propyl-(1″R)-3″β-(4-fluorophenyl)tropane-2″β-1-propanoyl)(2-mercaptoethyl)amino)acetyl)-2-aminoethane-thiolato]rhenium (V) oxide]",0.2,0.0059,34,
"CCC(=O)C1C(c2ccc(F)cc2)CC2CCC1N2CCC[N+]12CC[S][Re-]13(=[O])[S]CC[N]3C(=O)C2 (stereo not drawn) [Compound O-1505, N-[(2-((3′-N′-Propyl-(1″R)-3″α-(4-fluorophenyl)tropane-2″β-1′″-propanoyl)(2-mercaptoethyl)amino)acetyl)-2-aminoethane-thiolato]rhenium (V) Oxide]",0.497,0.002,249,
